Measurements as given in patent US20260042731A1, “(2,4-DICHLOROPHENOXY)ACETIC ACID ANALOGS” (CORTEVA AGRISCIENCE LLC, priority 2022, published 2026).
Like-named read-outs stand apart in the source and are kept apart here.

Columns and labels:
[1] = tested on: Amaranthus rudis (AMATA), tall water hemp; assay: Postemergence herbicide evaluation, growth of Amaranthus rudis (AMATA); assay type: in vivo; conditions: Amaranthus tuberculatus, post-emergence, percent reduction in plant size relative to untreated control, read-out: Ave. AMATA; for pest or weed control at 280 g/ha: 280 g ae/ha; for pest or weed control at 560 g/ha: 560 g ae/ha
[2] = tested on: Ambrosia artemisiifolia (AMBEL), common ragweed; assay: Postemergence herbicide evaluation, growth of Ambrosia artemisiifolia (AMBEL); assay type: in vivo; conditions: Ambrosia artemisiifolia, post-emergence, percent reduction in plant size relative to untreated control, read-out: AVE. AMBEL; for pest or weed control at 280 g/ha: 280 g ae/ha; for pest or weed control at 560 g/ha: 560 g ae/ha
[3] = tested on: Abutilon theophrasti (ABUTH), velvetleaf; assay: Postemergence herbicide evaluation, growth of Abutilon theophrasti (ABUTH); assay type: in vivo; conditions: Abutilon theophrasti, post-emergence, percent reduction in plant size relative to untreated control, read-out: AVE. ABUTH; for pest or weed control at 280 g/ha: 280 g ae/ha; for pest or weed control at 560 g/ha: 560 g ae/ha
[4] = tested on: Chenopodium album (CHEAL), common lambsquarters; assay: Postemergence herbicide evaluation, growth of Chenopodium album (CHEAL); assay type: in vivo; conditions: Chenopodium album, post-emergence, percent reduction in plant size relative to untreated control, read-out: Ave. CHEAL; for pest or weed control at 280 g/ha: 280 g ae/ha; for pest or weed control at 560 g/ha: 560 g ae/ha
[5] = tested on: glyphosate resistant Conyza canadensis (L.) (ERICA), horseweed; assay: Postemergence herbicide evaluation, growth of Conyza canadensis (ERICA); assay type: in vivo; conditions: Erigeron canadensis, post-emergence, percent reduction in plant size relative to untreated control, read-out: Ave. ERICA; for pest or weed control at 280 g/ha: 280 g ae/ha; for pest or weed control at 560 g/ha: 560 g ae/ha
[6] = Volatility of compounds measured by thermogravimetric analysis (TGA); assay type: physicochemical
Corn (ZEAMX) = assay: Greenhouse post-emergence mixture trials, percent visual control; assay type: in vivo; conditions: ZEAMX, 21 DAA
[7] = tested on: Common Lambsquarters (CHEAL); assay: as above; assay type: in vivo; conditions: CHEAL, 21 DAA; for pest or weed control at 560 g/ha / pest or weed control at 1120 g/ha: Chenopodium album, post-emergence, 504 h, no mixing partner; for pest or weed control at 1120 g/ha: read-out: % Control
Velvetleaf (ABUTH) = assay: as above; assay type: in vivo; conditions: ABUTH, 21 DAA; for pest or weed control at 560 g/ha / pest or weed control at 1120 g/ha: Abutilon theophrasti, post-emergence, 504 h, no mixing partner; for pest or weed control at 1120 g/ha: read-out: % Control
[8] = tested on: weeds (ABUTH, AMATA, AMBEL, CHEAL, ERICA); assay: Postemergence herbicide evaluation, overall average % weed control across ABUTH, AMATA, AMBEL, CHEAL, ERICA; assay type: in vivo; conditions: post-emergence, average over the five weeds, read-out: Overall Ave % Weed Control; for pest or weed control at 280 g/ha: 280 g ae/ha; for pest or weed control at 560 g/ha: 560 g ae/ha
[9] = Trial Bridge 2, compound 560 g ae/ha + Saflufenacil 25 g ai or ae/ha
[10] = Trial Bridge 2, compound 560 g ae/ha + Saflufenacil 75 g ai or ae/ha
[11] = Trial Bridge 2, compound 560 g ae/ha + Trifludimoxazin 12.5 g ai or ae/ha
[12] = Trial Bridge 2, compound 560 g ae/ha + Trifludimoxazin 50 g ai or ae/ha
[13] = Trial Bridge 2, compound 1120 g ae/ha + Saflufenacil 25 g ai or ae/ha
[14] = Trial Bridge 2, compound 1120 g ae/ha + Saflufenacil 75 g ai or ae/ha
[15] = Trial Bridge 2, compound 1120 g ae/ha + Trifludimoxazin 50 g ai or ae/ha
[16] = Trial Bridge 2, compound 560 g ae/ha
[17] = Trial Bridge 2, compound 1120 g ae/ha
[18] = Trial Bridge 1, compound 560 g ae/ha + Glufosinate 600 g ai or ae/ha

## O=C(COc1ccc(Cl)cc1Cl)NNC(=O)c1ccccc1 [Compound D10]
[1]; 168 h, 7 DAA
  pest or weed control at 280 g/ha: 68%
  pest or weed control at 560 g/ha: 80%
[1]; 336 h, 14 DAA
  pest or weed control at 280 g/ha: 94%
  pest or weed control at 560 g/ha: 96%
[1]; 504 h, 21 DAA
  pest or weed control at 280 g/ha: 85%
  pest or weed control at 560 g/ha: 85%
[2]; 168 h, 7 DAA
  pest or weed control at 280 g/ha: 73%
  pest or weed control at 560 g/ha: 83%
[2]; 336 h, 14 DAA
  pest or weed control at 280 g/ha: 91%
  pest or weed control at 560 g/ha: 97%
[2]; 504 h, 21 DAA
  pest or weed control at 280 g/ha: 93%
  pest or weed control at 560 g/ha: 100%
[3]; 168 h, 7 DAA
  pest or weed control at 280 g/ha: 88%
  pest or weed control at 560 g/ha: 83%
[3]; 336 h, 14 DAA
  pest or weed control at 280 g/ha: 85%
  pest or weed control at 560 g/ha: 96%
[3]; 504 h, 21 DAA
  pest or weed control at 280 g/ha: 91%
  pest or weed control at 560 g/ha: 100%
[4]; 168 h, 7 DAA
  pest or weed control at 280 g/ha: 63%
  pest or weed control at 560 g/ha: 65%
[4]; 336 h, 14 DAA
  pest or weed control at 280 g/ha: 68%
  pest or weed control at 560 g/ha: 83%
[4]; 504 h, 21 DAA
  pest or weed control at 280 g/ha: 73%
  pest or weed control at 560 g/ha: 85%
[5]; 168 h, 7 DAA
  pest or weed control at 280 g/ha: 63%
  pest or weed control at 560 g/ha: 65%
[5]; 336 h, 14 DAA
  pest or weed control at 280 g/ha: 83%
  pest or weed control at 560 g/ha: 88%
[5]; 504 h, 21 DAA
  pest or weed control at 280 g/ha: 93%
  pest or weed control at 560 g/ha: 99%
[6]
  TGA Data (rate of weight loss, volatility): 0.3 µg/min
Corn (ZEAMX); Trial Bridge 1, compound 560 g ae/ha + Glyphosate 1120 g ai or ae/ha
  % Control: 75%
Corn (ZEAMX); Trial Bridge 1, compound 560 g ae/ha + Glyphosate 1120 g ai or ae/ha, single replicate
  % Control: 70%
Corn (ZEAMX); Trial Bridge 1, compound 1120 g ae/ha, no mixing partner, single replicate
  % Control: 10%
Corn (ZEAMX); Zea mays, post-emergence, 504 h, Trial Bridge 1, compound 1120 g ae/ha, no mixing partner, single replicate
  plant injury at 1120 g/ha: 10%
Corn (ZEAMX); Zea mays, post-emergence, 504 h, compound 560 g ae/ha, no mixing partner, Trial Bridge 3
  plant injury at 560 g/ha: 5%
[7]; [9]
  % Control: 100%
[7]; [10]
  % Control: 100%
[7]; [11]
  % Control: 100%
[7]; [12]
  % Control: 100%
[7]; [13]
  % Control: 100%
[7]; [14]
  % Control: 100%
[7]; Trial Bridge 2, compound 1120 g ae/ha + Trifludimoxazin 12.5 g ai or ae/ha
  % Control: 100%
[7]; [15]
  % Control: 100%
[7]; Trial Bridge 3, compound 560 g ae/ha + Sulfentrazone 130 g ai/ha
  % Control: 100%
[7]; Trial Bridge 3, compound 560 g ae/ha + Sulfentrazone 347 g ai/ha
  % Control: 100%
[7]; Trial Bridge 3, compound 1120 g ae/ha + Sulfentrazone 130 g ai/ha
  % Control: 100%
[7]; Trial Bridge 3, compound 1120 g ae/ha + Sulfentrazone 347 g ai/ha
  % Control: 100%
[7]; [16]
  pest or weed control at 560 g/ha: 95%
[7]; [17]
  pest or weed control at 1120 g/ha: 95%
[7]; Trial Bridge 3, compound 560 g ae/ha
  pest or weed control at 560 g/ha: 95%
[7]; Trial Bridge 3, compound 1120 g ae/ha
  pest or weed control at 1120 g/ha: 100%
[7]; Trial Bridge 1, compound 560 g ae/ha
  pest or weed control at 560 g/ha: 95%
[7]; Trial Bridge 1, compound 1120 g ae/ha
  pest or weed control at 1120 g/ha: 95%
[7]; [18]
  % Control: 100%
[7]; Trial Bridge 1, compound 560 g ae/ha + Mesotrione 150 g ai or ae/ha
  % Control: 100%
[7]; Trial Bridge 1, compound 1120 g ae/ha + Arylex 5 g ai or ae/ha
  % Control: 95%
[7]; Trial Bridge 1, compound 1120 g ae/ha + Mesotrione 150 g ai or ae/ha
  % Control: 100%
Velvetleaf (ABUTH); compound 1120 g ae/ha + Sulfentrazone 130 g ai/ha, Trial Bridge 3
  % Control: 100%
Velvetleaf (ABUTH); compound 1120 g ae/ha + Sulfentrazone 347 g ai/ha, Trial Bridge 3
  % Control: 100%
Velvetleaf (ABUTH); compound 560 g ae/ha, Trial Bridge 3
  pest or weed control at 560 g/ha: 85%
Velvetleaf (ABUTH); compound 1120 g ae/ha, Trial Bridge 3
  pest or weed control at 1120 g/ha: 95%
Velvetleaf (ABUTH); Trial Bridge 1 Trt 2, D10 560 g ae/ha
  pest or weed control at 560 g/ha: 99%
Velvetleaf (ABUTH); Trial Bridge 1 Trt 3, D10 1120 g ae/ha
  pest or weed control at 1120 g/ha: 100%
Velvetleaf (ABUTH); [16]
  pest or weed control at 560 g/ha: 100%
Velvetleaf (ABUTH); [17]
  pest or weed control at 1120 g/ha: 100%
Velvetleaf (ABUTH); [18]
  % Control: 100%
Velvetleaf (ABUTH); Trial Bridge 1 Trt 5, D10 560 g ae/ha + diclosulam 35 g ai or ae/ha
  % Control: 100%
Velvetleaf (ABUTH); Trial Bridge 1 Trt 6, D10 1120 g ae/ha + diclosulam 35 g ai or ae/ha
  % Control: 100%
Velvetleaf (ABUTH); Trial Bridge 1 Trt 8, D10 560 g ae/ha + Arylex 5 g ai or ae/ha
  % Control: 100%
Velvetleaf (ABUTH); Trial Bridge 1 Trt 9, D10 1120 g ae/ha + Arylex 5 g ai or ae/ha
  % Control: 100%
Velvetleaf (ABUTH); Trial Bridge 1 Trt 11, D10 560 g ae/ha + Mesotrione 150 g ai or ae/ha
  % Control: 100%
Velvetleaf (ABUTH); Trial Bridge 1 Trt 12, D10 1120 g ae/ha + Mesotrione 150 g ai or ae/ha
  % Control: 100%
Velvetleaf (ABUTH); Trial Bridge 1 Trt 14, D10 560 g ae/ha + Glyphosate 1120 g ai or ae/ha
  % Control: 100%
Velvetleaf (ABUTH); Trial Bridge 1 Trt 15, D10 1120 g ae/ha + Glyphosate 1120 g ai or ae/ha
  % Control: 100%
Velvetleaf (ABUTH); [9]
  % Control: 100%
Velvetleaf (ABUTH); [10]
  % Control: 100%
Velvetleaf (ABUTH); [11]
  % Control: 100%
Velvetleaf (ABUTH); [12]
  % Control: 100%
Velvetleaf (ABUTH); [13]
  % Control: 100%
Velvetleaf (ABUTH); [14]
  % Control: 100%
Velvetleaf (ABUTH); [15]
  % Control: 100%
[8]; 168 h, 7 DAA
  pest or weed control at 280 g/ha: 71%
  pest or weed control at 560 g/ha: 75%
[8]; 336 h, 14 DAA
  pest or weed control at 280 g/ha: 84%
  pest or weed control at 560 g/ha: 92%
[8]; 504 h, 21 DAA
  pest or weed control at 280 g/ha: 87%
  pest or weed control at 560 g/ha: 94%
